Source: US20220281910A1, “DINUCLEOTIDE COMPOUNDS FOR TREATING CANCERS AND MEDICAL USES THEREOF” (PINOTBIO, INC., priority 2019, published 2022)

Key:
Type in all cases: cell-based
DU-145 = experiment: Cell viability assay (CellTiterGlo), DU-145; settings: Homo sapiens; DU-145, origin Prostate; 72 h
Method: (§1) The test compounds and bortezomib (positive control) were solved in DMSO as 5 mM solution, which was aliquoted, frozen at −20° C. and thawed just prior addition by nanodrop dispensing. Compound treatment of cells started one day after seeding with a final DMSO concentration of 0.1% and was generally performed by nanodrop-dispensing using a Tecan Dispenser. 0.1% DMSO (solvent) and Staurosporine (1.0E-05 M) served as high control (100% viability) and low control (0% viability), respectively.
(§2) Cells were cultured in different media. For the assays, cells were seeded in white cell culture-treated flat and clear bottom multiwell plates and incubated at 37° C. before the compound was added. After incubation for 72 h at 37° C. at 5% or 10% CO2 dependent on the medium, cell plates were equilibrated to room temperature for one hour, CellTiterGlo reagent (Promega) was added and luminescence was measured ap-proximately an hour later using a luminometer.
(§3) Raw data were converted into percent cell viability relative to the high and low control, which were set to 100% and 0%, respectively. IC50 calculation was performed using GraphPad Prism software with a variable slope sigmoidal response fitting model using 0% viability as bottom constraint and 100% viability as top constraint.

NCI-H2286 = experiment: Cell viability assay (CellTiterGlo), NCI-H2286; settings: Homo sapiens; NCI-H2286, origin NSCLC; 72 h
Method: as §1, §2, §3

H460 = experiment: Cell viability assay (CellTiterGlo), H460; settings: Homo sapiens, NCI-H460; H460, origin NSCLC; 72 h
Method: as §1, §2, §3

MV4-11 = experiment: Cell viability assay (CellTiterGlo), MV4-11; settings: Homo sapiens; MV4-11, origin AML; 72 h
Method: as §1, §2, §3

A375 = experiment: Cell viability assay (CellTiterGlo), A375; settings: Homo sapiens, A-375; A375, origin Skin; 72 h
Method: as §1, §2, §3

IC50 (DU-145): 11 nM
IC50 (NCI-H2286): 6.6 nM
IC50 (H460): 16 nM
IC50 (MV4-11): 3.8 nM
IC50 (A375): 8.5 nM
SMILES: CC(C)C[C@H](NC(=O)[C@H](Cc1ccccc1)NC(=O)c1cnccn1)B(O)O [Bortezomib, bortezomib]
